Assay: Stability of angiotensin peptides in binding assay buffer / assay conditions
Type: physicochemical
Conditions: 4 h at 37° C., reverse phase HPLC

Question: For CC[C@H](C)[C@H](NC(=O)[C@H](Cc1ccc(O)cc1)NC(=O)[C@@H](N)C(C)C)C(=O)N[C@@H](Cc1cnc[nH]1)C(=O)N1CCC[C@H]1C(=O)N[C@@H](Cc1ccccc1)C(=O)O [AIV, Val1 Tyr2 Ile3 His4 Pro5 Phe6], which “hydrolysis in binding buffer” value is on record?
Answer: less than 10%

— patent publication US6022696A, “Methods of identifying agonists or antagonists of angiotensin IV” (Washington State University Research Foundation, priority 1998, dated 2000)
